Test results as given in the NIST ThermoML archive (doi:10.1021/acs.jced.7b00709).
± gives the expanded uncertainty stated by the source. Values belong to the compound of their own block, whether it stands above or below them.

Test: xn = mol fraction of the nth substance listed
Conditions: 298.2 K, 100 kPa, Liquid, Pycnometric method

mass density (x1 = 0.06047): 1059.7 ± 1.3 kg/m3
SMILES: Cc1ccc(-c2ncc(Cl)cc2-c2ccc(S(C)(=O)=O)cc2)cn1 [etoricoxib] + CC(O)CO

mass density (x1 = 0.03786): 805 ± 0.9 kg/m3
SMILES: Cc1ccc(-c2ncc(Cl)cc2-c2ccc(S(C)(=O)=O)cc2)cn1 [etoricoxib] + CO

mass density (x1 = 1.58e-05): 994.8 ± 1 kg/m3
SMILES: Cc1ccc(-c2ncc(Cl)cc2-c2ccc(S(C)(=O)=O)cc2)cn1 [etoricoxib] + O

mass density (x1 = 0.05656): 1298 ± 1.6 kg/m3
SMILES: Cc1ccc(-c2ncc(Cl)cc2-c2ccc(S(C)(=O)=O)cc2)cn1 [etoricoxib] + OCC(O)CO
